Tests used:
CA1 pyramidal cells [1] = assay: Carbachol-induced cholinergic CA1 θ field potential and intracellular θ in hippocampal slices, with or without brief hypoxia; assay type: cell-based, rat
Description: (§1) Brain slices and electrophysiology. Male Sprague-Dawley rats (150-200 gm) were anesthetized with pentobarbital and the brains were removed and cooled rapidly in aCSF solution, bubbled continuously with 95% O2 and 5% CO2. Hippocampi were sliced ([…]) and placed in oxygenated aCSF (NaCl, 124 mM; KCl 3; MgSO4 1.3; CaCl2 2.4; NaHCO3 26; NaH2PO4 1.25; and glucose 10). The CA1 pyramidal cells were recorded at 30-31° C. with sharp electrodes (tip resistance: 60-120 MΩ). Study was performed on CA1 neurons with stable resting membrane potential more negative than −70 mV. Unless otherwise mentioned, test stimuli were applied at frequency of 1 per minute (0.017 Hz). Signals were amplified with AxoClamo-2B amplifier, digitized and stored using DigiData 1200 with the P-Clamp data collection and analysis software (Axon Instruments, Inc.).
Hypoxia. Episodes of hypoxia were induced by replacing the oxygen supply with […] for 3 min or 95% N2/5% CO2 for 100 s. […] The hypoxia is milder than those used by others to produce an irreversible impairment of synaptic transmission^25.
Effects of brief hypoxia on functions of CA1 neurons were monitored on synaptic transmission, long-term potentiation (LTP) of glutamatergic EPSPs, and cholinergic θ, a memory-related neuronal activity synchronization that depends on a temporal heterosynaptic interaction. Bath application of carbachol (50 μM, 20 min), a cholinergic receptor agonist, to hippocampal slices mimicked septal activation and diffuse acetylcholine transmission and induced CA1 θ field potential (FIG. 1a; peak amplitude: 0.73±0.02 mV, n=10, p<0.05, at 7.4±0.7 Hz from background noise). The θ is sensitive to atropine blockade and lasted for more than 3h^7. The θ oscillation of membrane potential (7.5±1.0 mV; n=18; p<0.05) was also observed in CA1 pyramidal cells (intracellular θ; FIG. 1b). […] LTP of responses to schaffer collateral (Sch) glutamatergic inputs (FIG. 1c,e), however, was not reduced, but enhanced, by the hypoxia (FIG. 1d,e), consistent with reported hypoxic LTP^8 and the observation that LTP expression is not vulnerable to transient hypoxia a few minutes after hypoxia.

hypoxia rats = assay: Hidden-platform water maze spatial learning and memory in rats subjected to brief hypoxia; assay type: in vivo, rat; details: bilateral i.c.v. 400 nmoles/site
Description: The figure illustrates experimental protocol (FIG. 4a), escape latency (means±SEM) in water maze training (FIG. 4b) across 12 trials (F11,312=50.14, p<0.0001), and quadrant preference (FIGS. 4c, 4d and 4e) conducted at the end of the twelfth training session, and swimming distance (in 1 min; FIG. 4f). Rats were either subjected to air or hypoxia (95% N2/5% CO2 for 100 s) about 30 min in a glass jar after the 2nd-or 4th trial of the day. Bilateral i.c.v. CPDPX (400 nmoles/site) or vehicle were administered before the 2nd and 4th trials of the day. Quadrant 4 is the target quadrant during training.
Spatial maze tasks. Male adult Wistar rats (200-250 gm) were anesthetized with sodium pentobarbital (60 mg/kg, i.p) and placed in a stereotactic apparatus (Kopf Instruments, Tujunga, Calif.). Two stainless steel guide cannulas were placed with the tips positioned at the coordinates (anterior-posterior, 0.5 mm; lateral, 1.5 mm; horizontal, 3.2 mm), under aseptic conditions. A 7-day recovery period was allowed before any further experimentation. All rats were randomly assigned to different groups (10 each) and swam for 2 min in a 1.5 m (diameter)×0.6 m (depth) pool (22±1° C.). […]
One of the most persistent consequences of transient hypoxia/ischemia is amnesia. Effects of brief hypoxia and CPDPX on spatial learning (FIG. 4a) were evaluated in rats, using a hidden-platform water maze. […]

CA1 pyramidal cells [2] = assay: Sch-CA1 synaptic transmission (EPSPs) in hippocampal slices during brief hypoxia (synaptic arrest); assay type: cell-based, rat
Description: as §1
(§2) Hypoxia. Episodes of hypoxia were induced by replacing the oxygen supply with 95% N2/5% O2/5% CO2 for 3 min or 95% N2/5% CO2 for 100 s. […]
(§3) The period of hypoxia is known to block synaptic transmission of glutarmatergic inputs^8, GABAergic input^8,10 and cholinergic inputs ^11,12, causing disconnection, or synaptic ‘arrest’, of CA1 neuronal network^8. […] Effects of brief hypoxia on synaptic transmission and of agents on hypoxic responses were monitored on responses of CA1 pyramidal cells to Sch activation. […]

adenosine A1 receptor = molecular target: T1, adenosine A1 receptor (Rattus norvegicus, UniProt P25099); details: cited from earlier work
T1 sequence (P25099 1-326): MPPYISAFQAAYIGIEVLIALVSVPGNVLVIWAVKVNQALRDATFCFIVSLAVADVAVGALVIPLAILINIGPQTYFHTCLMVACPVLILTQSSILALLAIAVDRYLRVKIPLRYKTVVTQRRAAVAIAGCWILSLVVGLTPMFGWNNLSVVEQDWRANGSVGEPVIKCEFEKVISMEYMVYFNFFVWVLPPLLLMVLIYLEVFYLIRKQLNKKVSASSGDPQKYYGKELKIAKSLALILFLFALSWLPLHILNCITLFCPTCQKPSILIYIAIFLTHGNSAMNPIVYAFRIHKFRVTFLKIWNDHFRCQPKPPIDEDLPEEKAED

CA1 pyramidal cells [3] = assay: Membrane response of CA1 pyramidal cells to local application of glutamate; assay type: cell-based, rat; details: 20 μl of 10 mM
Description: as §1, §2, §3

In the case of `C[N+](C)(C)CCOC(N)=O` [carbachol], the “frequency of induced CA1 θ field potential” value (CA1 pyramidal cells [1]; bath application 50 μM, 20 min) is reported as 7.4±0.7 Hz, the “induced CA1 θ field potential peak amplitude” value (CA1 pyramidal cells [1]; bath application 50 μM, 20 min, n=10) is reported as 0.73±0.02 mV and the “θ oscillation of membrane potential (intracellular θ)” value (CA1 pyramidal cells [1]; carbachol 50 μM, CA1 pyramidal cells, n=18) is reported as 7.5±1.0 mV.

With `CCCn1c(=O)c2[nH]c(C3CCCC3)nc2n(CCC)c1=O` [CPDPX, 8-cyclopentyl-1,3-dipropylxanthine] the “quadrant preference in quadrant test” value (hypoxia rats; 24 hrs after last training trial, F3,36=169.7, p<0.0001) was “showed a preference for the target quadrant”, the “effect on hypoxic impairment of spatial memory (escape latency)” value (hypoxia rats; hypoxia 95% N2/5% CO2 100 s) was “eliminated hypoxic impairment on the spatial memory” and the “intracellular θ after brief hypoxia (versus pre-hypoxia)” value (CA1 pyramidal cells [1]; in presence of CPDPX, CA1 pyramidal cells, n=8, p>0.05) was 99.6±3.0%. The “θ activity after brief hypoxia (versus pre-hypoxia)” value (CA1 pyramidal cells [1]; in presence of CPDPX, carbachol-induced CA1 θ, n=6, p>0.05) was 100.2±3.2%, the “synaptic transmission at the end of the hypoxia versus control 100%” value (CA1 pyramidal cells [2]; Sch-CA1 EPSPs, brief hypoxia 5% O2 3 min, 10 μM, n=7, p>0.05) was 99.2±2.4% and the “effect on hypoxic synaptic arrest” value (CA1 pyramidal cells [2]; end of 3 min hypoxia, citicoline 100 μM, 8-cyclopentyl-1,3-dipropylxanthine 10 μM) was “synaptic arrest was abolished”. For the same compound, the “effect on adenosine-mediation of anoxia induced synaptic glutamate release in CA1 pyramidal neurons” value (adenosine A1 receptor; Katchman et al. 1996) was “not affected” and the “effect on hypoxia-induced accumulation of adenosine” value (adenosine A1 receptor; Pearson et al. 2000) was “mitigates hypoxia-induced accumulation of adenosine during hypoxia”.

For `N[C@@H](CCC(=O)O)C(=O)O` [glutamate], the “peak inward current, control value” (CA1 pyramidal cells [3]; local application before hypoxia) was 206.8±9.7 pA and the peak inward current (CA1 pyramidal cells [3]; local application during last few seconds of 3 min hypoxia, n=7) was 201.2±10.5 pA.
